These results are taken from US9879303B2, “Chromogenic glucuronidase substrates and uses” (Glycosynth Limited, priority 2013, dated 2018).

Series [1] relates to Acinetobacter baumanaii NCTC 19606. The experiment in a line: multi-point inoculation onto Columbia agar plates. It counts as cell-based. Particulars: substrate 300 mg/L, FAC 500 mg/L, 18 h at 37° C. in air. How it is done: (§1) The specificity of action of both DHN-β-D-glucuronide (2) and of catechol-β-D-glucuronide (1), as well as their 6′-methyl esters (4 and 6), was first established using multi-point inoculation of 20 different microbial strains onto Columbia agar plates. The strains chosen represented species commonly encountered in diagnostic microbiology. The substrates were incorporated into the agar at a concentration of 300 mg/L with an iron salt, ferric ammonium citrate, (hereinafter known as FAC) at 500 mg/L. The plates were incubated for 18 h at 37° C. in air.

Series [2] relates to Bacillus subtilis NCTC 9372. The experiment in a line: multi-point inoculation onto Columbia agar plates. Format: cell-based. Particulars: substrate 300 mg/L, FAC 500 mg/L, 18 h at 37° C. in air. As for the experimental part:
as §1

Series [3] deals with Burkholderia cepacia NCTC 10931. The experiment in a line: multi-point inoculation onto Columbia agar plates. It counts as cell-based. Particulars: substrate 300 mg/L, FAC 500 mg/L, 18 h at 37° C. in air. How it is done:
as §1

Series [4] concerns Candida albicans ATCC 90028. The experiment in a line: multi-point inoculation onto Columbia agar plates. Particulars: substrate 300 mg/L, FAC 500 mg/L, 18 h at 37° C. in air. It counts as cell-based. As for the experimental part: as §1
The subject of series [5] is Candida glabrata NCPF 3943. The experiment in a line: multi-point inoculation onto Columbia agar plates. Format: cell-based. Particulars: substrate 300 mg/L, FAC 500 mg/L, 18 h at 37° C. in air. As for the experimental part: as §1
In series [6] the test system is Enterobacter cloacae NCTC 11936. The experiment in a line: multi-point inoculation onto Columbia agar plates. It counts as cell-based. Particulars: substrate 300 mg/L, FAC 500 mg/L, 18 h at 37° C. in air. As for the experimental part: as §1
Series [7] has as its system Enterococcus faecalis NCTC 775. As to the kind of experiment: multi-point inoculation onto Columbia agar plates. It counts as cell-based. The conditions noted are these: substrate 300 mg/L, FAC 500 mg/L, 18 h at 37° C. in air. As for the experimental part: as §1
Series [8] concerns Enterococcus faecium NCTC 7171. The experiment in a line: multi-point inoculation onto Columbia agar plates. Format: cell-based. The conditions noted are these: substrate 300 mg/L, FAC 500 mg/L, 18 h at 37° C. in air. How it is done: as §1
The test system of series [9] is Escherichia coli NCTC 10418. As to the kind of experiment: multi-point inoculation onto Columbia agar plates. It counts as cell-based. The conditions noted are these: for intensity of the colour / performance compared with the other substrates: comparison in words, Columbia agar with FAC; for colour: substrate 300 mg/L, FAC 500 mg/L, 18 h at 37° C. in air. As for the experimental part:
as §1

In series [10] the test system is Klebsiella pneumoniae NCTC 9528. As to the kind of experiment: multi-point inoculation onto Columbia agar plates. Format: cell-based. The conditions noted are these: substrate 300 mg/L, FAC 500 mg/L, 18 h at 37° C. in air. As for the experimental part: as §1
For series [11], the system named is Listeria monocytogenes NCTC 11994. As to the kind of experiment: multi-point inoculation onto Columbia agar plates. Particulars: substrate 300 mg/L, FAC 500 mg/L, 18 h at 37° C. in air. Format: cell-based. As for the experimental part: as §1
The subject of series [12] is Providencia rettgeri NCTC 7475. The experiment in a line: multi-point inoculation onto Columbia agar plates. Format: cell-based. The conditions noted are these: substrate 300 mg/L, FAC 500 mg/L, 18 h at 37° C. in air. How it is done:
as §1

In series [13] the test system is Pseudomonas aeruginosa NCTC 10662. The experiment in a line: multi-point inoculation onto Columbia agar plates. It counts as cell-based. The conditions noted are these: substrate 300 mg/L, FAC 500 mg/L, 18 h at 37° C. in air. As for the experimental part: as §1
Series [14] deals with Salmonella typhimurium NCTC 74. The experiment in a line: multi-point inoculation onto Columbia agar plates. It counts as cell-based. The conditions noted are these: substrate 300 mg/L, FAC 500 mg/L, 18 h at 37° C. in air. How it is done: as §1
Series [15] deals with Serratia marcescens NCTC 10211. As to the kind of experiment: multi-point inoculation onto Columbia agar plates. Format: cell-based. Particulars: substrate 300 mg/L, FAC 500 mg/L, 18 h at 37° C. in air. How it is done:
as §1

For series [16], the system named is Staphylococcus aureus (MRSA) NCTC 11939. The experiment in a line: multi-point inoculation onto Columbia agar plates. Format: cell-based. The conditions noted are these: substrate 300 mg/L, FAC 500 mg/L, 18 h at 37° C. in air. As for the experimental part: as §1
In series [17] the test system is Staphylococcus aureus NCTC 6571. The experiment in a line: multi-point inoculation onto Columbia agar plates. It counts as cell-based. The conditions noted are these: substrate 300 mg/L, FAC 500 mg/L, 18 h at 37° C. in air. How it is done:
as §1

The subject of series [18] is Staphylococcus epidermidis NCTC 11047. As to the kind of experiment: multi-point inoculation onto Columbia agar plates. Particulars: substrate 300 mg/L, FAC 500 mg/L, 18 h at 37° C. in air. It counts as cell-based. As for the experimental part: as §1
Series [19] concerns Streptococcus pyogenes NCTC 8306. The experiment in a line: multi-point inoculation onto Columbia agar plates. Particulars: substrate 300 mg/L, FAC 500 mg/L, 18 h at 37° C. in air. Format: cell-based. How it is done: as §1
In series [20] the test system is Yersinia enterocolitica NCTC 11176. As to the kind of experiment: multi-point inoculation onto Columbia agar plates. Format: cell-based. The conditions noted are these: substrate 300 mg/L, FAC 500 mg/L, 18 h at 37° C. in air. As for the experimental part:
as §1

The test system of series [21] is 20 different microbial strains. The experiment in a line: specificity of action on 20 different microbial strains, Columbia agar. Format: cell-based. The conditions noted are these: 19 organisms other than E. coli NCTC 10418, FAC. As for the experimental part: as §1
Of the 20 strains, only the β-D-glucuronidase-positive strain of E. coli, (E. coli NCTC 10418) was able to hydrolyse the substrates. This organism generated diffuse, purple-brown colonies with the catechol substrates and diffuse, maroon colonies with the DHN substrates. Essentially identical results were obtained if other iron salts (e.g. iron(II) gluconate, iron(II) acetate, iron(II) citrate, iron(II) acetylacetonate and iron(III) acetylacetonate) were substituted in place of FAC. The iron compound can be either iron(II) (i.e. ferrous) or iron(III) (i.e. ferric). Both types of compound work equally, and the coloured chelates were still formed when the plates were incubated under anaerobic conditions, which is another useful feature of the present invention. The substrates may also be autoclaved at 116° C. for 20 minutes with no decrease in sensitivity. It will be appreciated that the media and the reagents will all contain at least traces of iron compounds. […] In contrast, supplementing the growth media with compounds of other metals gave either no coloured endpoint or an extremely poor one to visualise. […] Therefore the latter substrates were preferred for more extensive evaluation. […] For convenience, further evaluation of catechol-β-D-glucuronide and DHN-β-D-glucuronide was conducted with the CHA salt forms only (1 and 2b). In the present invention the counter ion of the glucuronide is not considered to be of special significance. For acidic enzyme substrates (including glucuronides), a variety of different counter ions, both inorganic and organic, are well known in the prior art.

Counter-ions that a name gives are not always drawn.

In the case of `COC(=O)C1OC(Oc2cc3ccccc3cc2O)C(O)C(O)C1O` [Compound 6, DHN-β-D-Glucuronide-6′-Methyl Ester], the colour result in [1], in series [2], in [3], in series [4], in series [5] and in [6] was “−” each time. Moreover, the colour result in series [7] is “−”; in series [8], “−”; in series [9] it was “+”; in series [10], “−”; in series [11], “−”; in series [12], “−”. Besides, the colour entry in [13], in series [14], in series [15], in [16], in series [17] and in [18] was “−” each time. The colour result in series [19] and in [20] was “−” throughout. The “intensity of the colour / performance compared with the other substrates” value in series [9] was “noticeably inferior”. Further, the “result with the other 19 organisms” value in series [21] is “uniformly negative”.

Turning to `O=C(O)C1OC(Oc2ccccc2O)C(O)C(O)C1O` (as salt: salt) [Compound 1, Catechol β-D-Glucuronide CHA Salt], the melting point (commonly the temperature, or range, at which the solid turns liquid) was 208 to 210 °C.

For `COC(=O)C1OC(Oc2cc3ccccc3cc2O)C(OC(C)=O)C(OC(C)=O)C1OC(C)=O` [Compound 5, DHN-2′,3′,4′-tri-O-acetyl-β-D-glucuronide-6-methyl ester], the melting point is 191 to 192 °C.

In the case of `COC(=O)C1OC(Oc2ccccc2O)C(O)C(O)C1O` [Compound 4, Catechol β-D-Glucuronide-6′-Methyl Ester], the colour entry in series [1], in series [2], in series [3], in series [4], in series [5] and in series [6] was “−” in each case. Also, the colour result in [7] is recorded as “−”; in [8], “−”; in series [9] it was “+”; in series [10], “−”; in [11], “−”; in [12], “−”. In addition, the colour entry in series [13], in series [14], in [15], in series [16], in series [17] and in [18] was “−” in each case. Also, the colour result in series [19] and in series [20] was “−” each time. Moreover, in series [9], the “intensity of the colour / performance compared with the other substrates” value was “noticeably inferior”. Besides, the “result with the other 19 organisms” value in series [21] is “uniformly negative”.

Turning to `COC(=O)C1OC(Oc2ccccc2O)C(OC(C)=O)C(OC(C)=O)C1OC(C)=O` [Compound 3, Catechol 2′,3′,4′,-tri-O-acetyl β-D-glucuronide-6′-methyl ester], the melting point lay in the range of 128 to 130 °C.

`O=C(O)C1OC(Oc2cc3ccccc3cc2O)C(O)C(O)C1O` (as salt: salt) [Compound 2b, DHN-β-D-Glucuronide CHA Salt] showed a melting point of 223 to 224 °C.

The compound `O=C([O-])C1OC(Oc2cc3ccccc3cc2O)C(O)C(O)C1O.[Na+]` [Compound 2a, DHN-β-D-Glucuronide Sodium Salt] came in with a melting point of 53 to 55 °C. The colour entry in [1] is listed as “−”. Further, the colour result in series [2] was “−”. For the same compound, in series [3], the colour result is reported as “−”. Moreover, the colour result in series [4] is reported as “−”. Further, the colour result in series [5] is “−”. Moreover, the colour entry in series [6] is listed as “−”. The colour result in series [7] is on record as “−”. For the same compound, the colour result in series [8] is recorded as “−”. In [9], the “intensity of the colour / performance compared with the other substrates” value is recorded as “performed the same as its CHA salt (2b)” and the colour result was “++”. In addition, the colour entry in [10] is “−”. Besides, in series [11], the colour entry is listed as “−”. For the same compound, in [12], the colour result was “−”. Also, in series [13], the colour entry was “−”. In series [14], the colour entry is listed as “−”. Further, in [15], the colour result was “−”. Also, the colour entry in series [16] was “−”. Also, in [17], the colour result is reported as “−”. Moreover, in [18], the colour entry is reported as “−”. For the same compound, the colour result in series [19] is “−”. The colour entry in [20] is given as “−”. The “result with the other 19 organisms” value in [21] is “uniformly negative”.
